Data from US4431664A, “Compound with antiulcerogenic activity, process for the preparation thereof and pharmaceutical composition therefrom” (Ausonia Farmaceutici s.r.l., priority 1981, dated 1984).

Tested on: mouse
Experiment: Toxicity by single intraperitoneal administration, LD50 (Litchfield and Wilcoxon)
Format: in vivo
Conditions: i.p., in words
Source text: The toxicity of AP 880 by single administration has been studied in comparison with the toxicity of ranitidine in mouse, by administration of larger and larger doses of compound (I) by the intraperitoneal route. The LD50 values, determined according to the method of Litchfield and Wilcoxon (J. Pharm. Exp. Ther. 96-99, (1949)) are reported in the following Table: […]

In the case of `CN(C)Cc1ccc(CSCCNC(=C[N+](=O)[O-])NCc2ccc3c(c2)OCO3)o1` [AP 880, N-(2-(((5-(dimethylamino)-methyl-2-furanyl)-methyl)-thio)-ethyl)-N'-(3,4-methylenedioxybenzyl)-2-nitro-1,1-ethendiamine], the “toxicity with respect to ranitidine” value was “substantially lower toxicity”.
